Values quoted from earlier work as cited in patent publication US8440844B2, “Process for the preparation of β-amino alcohol” (Council of Scientific & Industrial Research, priority 2011, dated 2013).

Assays:
γ-secretase = details: Notch-1-sparing γ-secretase inhibitor; background statement, no method given
[1] = test system: β-amyloid (Aβ) production; details: background statement

- EC50 (γ-secretase): 0.028 µM
Compound: CCC(CC)[C@@H](CO)NS(=O)(=O)c1ccc(Cl)s1 [(S)—N-(5-chlorothiophene-2-sulfonyl)-β,β-diethylalaninol]
- reduction of Aβ production in vivo [1]: effective in reduction of Aβ production in vivo
